# Data reported in US20230365592A1 (Agios Pharmaceuticals, Inc., priority 2022, published 2023).
# Target: T1, human PAH with the R408W mutation (Homo sapiens, UniProt P00439, R408W)
# T1 construct: expressed in transfected cells
# T1 sequence (P00439 1-452 R408W): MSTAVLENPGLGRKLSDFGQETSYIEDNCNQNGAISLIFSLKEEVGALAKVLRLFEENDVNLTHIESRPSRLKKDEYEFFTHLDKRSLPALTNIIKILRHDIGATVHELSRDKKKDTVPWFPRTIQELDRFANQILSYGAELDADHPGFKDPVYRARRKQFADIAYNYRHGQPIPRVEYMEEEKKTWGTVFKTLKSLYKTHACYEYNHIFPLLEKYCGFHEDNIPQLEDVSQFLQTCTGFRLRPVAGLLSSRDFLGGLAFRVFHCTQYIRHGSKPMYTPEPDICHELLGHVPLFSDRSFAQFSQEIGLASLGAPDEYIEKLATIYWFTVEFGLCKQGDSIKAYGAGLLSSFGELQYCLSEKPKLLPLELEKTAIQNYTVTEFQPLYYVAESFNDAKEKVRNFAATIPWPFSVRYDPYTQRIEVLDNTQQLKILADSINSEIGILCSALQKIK
# Experiment: Cell Based Phenylalanine Flux Assay;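 also: after compound treatment, cells received sepiapterin plus isotope-labelled Phenylalanine for 4 hours, then labelled Tyrosine in the medium was quantified, 10-point 2-fold dilution series run in duplicate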
# Conditions: A375 cells expressing human PAH R408W; 24 hrs compound incubation; 13C-Tyrosine by LC-MS; average where tested multiple times; read-out: AC50
row,Compound,AC50 [nM]
1,"FC(F)Oc1cccn2nc([C@@H]3c4nc[nH]c4CCN3c3nnc(C4CC4)o3)cc12 [Example 2509, (S)-2-cyclopropyl-5-(4-(4-(difluoromethoxy)pyrazolo[1,5-a]pyridin-2-yl)-1,4,6,7-tetrahydro-5H-imidazo[4,5-c]pyridin-5-yl)-1,3,4-oxadiazole]",1000 to 5000
2,"CC(F)(F)c1nnc(N2CCc3[nH]cnc3[C@H]2c2cc3cccc(C(F)F)n3n2)o1 [Example 2523, (S)-2-(1,1-difluoroethyl)-5-(4-(7-(difluoromethyl)pyrazolo[1,5-a]pyridin-2-yl)-1,4,6,7-tetrahydro-5H-imidazo[4,5-c]pyridin-5-yl)-1,3,4-oxadiazole]",1000 to 5000
3,"O=C(c1nnc(-c2c(F)cccc2F)o1)N1CCc2[nH]cnc2C1c1cc2ccccn2n1 (stereo not shown) [Example 2524, (5-(2,6-difluorophenyl)-1,3,4-oxadiazol-2-yl)(4-(pyrazolo[1,5-a]pyridin-2-yl)-6,7-dihydro-1H-imidazo[4,5-c]pyridin-5(4H)-yl)methanone]",500 to 1000

# Results, then the compound that gave them:
row,AC50 [nM],Compound
1,1000 to 5000,"FC(F)(F)c1cccn2nc([C@@H]3c4nc[nH]c4CCN3c3nnc(-c4cnccn4)o3)cc12 [Example 2510, (S)-2-(pyrazin-2-yl)-5-(4-(4-(trifluoromethyl)pyrazolo[1,5-a]pyridin-2-yl)-1,4,6,7-tetrahydro-5H-imidazo[4,5-c]pyridin-5-yl)-1,3,4-oxadiazole]"
2,> 5000,"FC(F)(F)c1cccn2nc([C@H]3c4nc[nH]c4CCN3c3nnc(-c4cnccn4)o3)cc12 [Example 2511, (R)-2-(pyrazin-2-yl)-5-(4-(4-(trifluoromethyl)pyrazolo[1,5-a]pyridin-2-yl)-1,4,6,7-tetrahydro-5H-imidazo[4,5-c]pyridin-5-yl)-1,3,4-oxadiazole]"
3,1000 to 5000,"O=C(c1cnc(-c2cnccn2)o1)N1CCc2[nH]cnc2[C@H]1c1cc2c(F)cccn2n1 [Example 2516, (S)-(4-(4-fluoropyrazolo[1,5-a]pyridin-2-yl)-1,4,6,7-tetrahydro-5H-imidazo[4,5-c]pyridin-5-yl)(2-(pyrazin-2-yl)oxazol-5-yl)methanone]"
4,> 5000,"O=C(c1cnc(-c2cnccn2)o1)N1CCc2[nH]cnc2[C@@H]1c1cc2c(F)cccn2n1 [Example 2517, (R)-(4-(4-fluoropyrazolo[1,5-a]pyridin-2-yl)-1,4,6,7-tetrahydro-5H-imidazo[4,5-c]pyridin-5-yl)(2-(pyrazin-2-yl)oxazol-5-yl)methanone]"
5,1000 to 5000,"FC(F)c1cccc2cc([C@@H]3c4nc[nH]c4CCN3c3nnc(-c4cnccn4)o3)nn12 [Example 2521, (S)-2-(4-(7-(difluoromethyl)pyrazolo[1,5-a]pyridin-2-yl)-1,4,6,7-tetrahydro-5H-imidazo[4,5-c]pyridin-5-yl)-5-(pyrazin-2-yl)-1,3,4-oxadiazole]"

# Same assay, conditions: A375 cells expressing human R408W PAH; 24 hrs compound incubation; 13C-Tyrosine by LC-MS; average where tested multiple times; read-out: AC50
row,Compound,AC50 [nM]
1,"(S)-(5-(2-fluoropropan-2-yl)-1,3.4-oxadiazol-2-yl)(4-(7-fluoropyrazolo[1,5-a]pyridin-2-yl)-6,7-dihydro-1H-imidazo[4,5-c(pyridin-5(4H)-yl)methanone [Example 1256]",< 500

# Same assay, conditions: AC50, A375 cells expressing human PAH R408W; 24 hrs compound incubation; 13C-Tyrosine by LC-MS; average where tested multiple times
row,Compound,AC50 [nM]
1,"CC(C)c1cccn2nc([C@@H]3c4nc[nH]c4CCN3c3nnc(C4CC(F)(F)C4)o3)cc12 [Example 2519, (S)-2-(3,3-difluorocyclobutyl)-5-(4-(4-isopropylpyrazolo[1,5-a]pyridin-2-yl)-1,4,6,7-tetrahydro-5H-imidazo[4,5-c]pyridin-5-yl)-1,3,4-oxadiazole]",1000 to 5000
